# What was measured:
# Sphaerotheca fuliginea = experiment: Cucumber Powdery Mildew (CPM) protectant test in the greenhouse; assay type: in vivo; details: 100 is total disease control, 0 is no disease control; for Cucumber Powdery Mildew (CPM) protectant fungicide data, percent control: 300 g/ha; for pest or weed control at 300 g/ha: Podosphaera fuliginea, topical, 168 h, read-out: Cucumber Powdery Mildew (CPM) protectant fungicide data, percent control
# Method: Plants used in the fungicide testing program were grown in 2-¼-inch (5.7-cm). square pots containing RediEarth propagation substrate. The plants were raised under greenhouse conditions. The rice plants were 12-days-old and cucumbers were 13-days-old at the time of spraying with chemical treatments.
# The sample of the experimental chemical was weighed and dissolved in an acetone-methanol-water solution (A/M/W at 1:1:2 ratio by volume).
# After sprayer calibration, the test solutions were poured into the fungicide sprayer. The fungicide sprayer contains three spray nozzles, located approximately 10 cm above and to the sides of the plants. The spray produced by the nozzles results in uniform coverage of both the upper and lower parts of the plant leaves. After spraying, the treated plants were placed in a drying chamber for 4 hours, prior to sorting.
# Cucumber Powdery Mildew (CPM), caused by the fungus Sphaerotheca fuliginea, was maintained on large cucumber plants. For inoculum preparation, five to eight leaves depending on size, completely covered with powdery mildew spores, were collected. The leaves were placed in a glass jar and covered with 500 ml of water, containing 5 drops of Tween-80. The material was filtered through two layers of cheesecloth to remove leaf fragments. The spore count was adjusted to 2×10^5 spores per ml.
# Cucumber plants, cv. “Bush Champion,” were used for this test. The plants were thinned to one per pot after the cotyledons were fully developed. Two days before the test, the small leaves and meristem region were removed, leaving only the cotyledons and one large true leaf.
# The protectant tests required that the cucumber plants be inoculated 1 day after spraying with the chemical treatment. The plants were inoculated with a hand-held spray bottle with the suspension of fungal spores. The leaves were lightly misted on the upper surface from two different spray directions. Disease development occurred in the greenhouse.
# After seven days, the plants were evaluated for percent of disease control. The results are reported as percent control; 100 is total disease control, 0 is no disease control.
# Pyricularia oryzae = experiment: whole plant or invertebrate; assay type: in vivo; details: 100 is total disease control, 0 is no disease control; for Rice Blast (RB) protectant fungicide data, percent control: 300 g/ha, greenhouse; for pest or weed control at 300 g/ha: Pyricularia oryzae, topical, 144 h, read-out: Rice Blast (RB) protectant fungicide data, percent control, protectant, 300 g/ha, greenhouse
SMILES,"Cucumber Powdery Mildew (CPM) protectant fungicide data, percent control (Sphaerotheca fuliginea) [percent control]","Rice Blast (RB) protectant fungicide data, percent control (Pyricularia oryzae) [percent control]",pest or weed control at 300 g/ha (Sphaerotheca fuliginea) [%],pest or weed control at 300 g/ha (Pyricularia oryzae) [%]
O=C1CN(CC=CCl)C(c2cc(Cl)cc(Cl)c2)=NN1CC=CCl (mixture of isomers) [Compound 66],0,50,–,–
O=C1CNC(c2cc(Cl)cc(Cl)c2)=NN1CC=CCl (mixture of isomers) [Compound 67],80,99,–,–
"O=C1CNC(c2ccc(F)c(Cl)c2)=NN1CC(F)(F)F [Compound 1, 1-(2,2,2-trifluoroethyl)-3-(3-chloro-4-fluorophenyl)-4,5-dihydro-1,2,4-triazin-6-one]",–,–,80,99
"CCCCN1N=C(c2ccc(Cl)cc2Cl)NCC1=O [Compound 2, 1-butyl-3-(2,4-dichlorophenyl)-4,5-dihydro-1,2,4-triazin-6-one]",–,–,85,95
"CCCCN1N=C(c2ccc(Oc3ccccc3)cc2)NCC1=O [Compound 3, 1-Butyl-3-(4-phenoxyphenyl)-4,5-dihydro-1,2,4-triazin-6-one]",–,–,0,80
"O=C1CNC(c2ccc(Cl)c(Cl)c2)=NN1CC1CC1 [Compound 9, 1-Cyclopropylmethyl-3-(3,4-dichlorophenyl)-4,5-dihydro-1,2,4-triazin-6-one]",–,–,80,100
"C=CCOC(=O)N1CC(=O)N(CC(F)(F)F)N=C1c1cc(Cl)cc(Cl)c1 [Compound 10, 1-(2,2,2-trifluoroethyl)-3-(3,5-dichlorophenyl)-4-allyloxycarbonyl-4,5-dihydro-1,2,4-triazin-6-one]",–,–,0,90
"CC(C)(C)OC(=O)N1CC(=O)N(C(=O)OC(C)(C)C)N=C1c1cc(Cl)cc(Cl)c1 [Compound 11, 1,4-di-(t-butoxycarbonyl)-3-(3,5-dichlorphenyl)-4,5-dihydro-1,2,4-triazin-6-one]",0,75,–,–
"CCCCN1N=C(c2ccc(Cl)c(Cl)c2)N(C(=S)SC)CC1=O [Compound 12, 1-n-butyl-3-(3,4-dichlorophenyl)-4-methylthiothiocarbonyl-4,5-dihydro-1,2,4-triazin-6-one]",–,–,0,95
"CCCCN1N=C(c2ccc(Cl)c(Cl)c2)N(C=CS(=O)(=O)c2ccccc2)CC1=O [Compound 13, 1-n-butyl-3-(3.4-dichlorophenyl)-4-(2-phenylsulfonylethene)-4,5-dihydro-1,2,4-triazin-6-one]",0,95,–,–
"COC(=O)SN1CC(=O)N(CC(F)(F)F)N=C1c1cc(Cl)cc(Cl)c1 [Compound 14, 1-(2,2,2-trifluoroethyl)-3-(3,5-dichlorophenyl)-4-(methoxycarbonylthio)-4,5-dihydro-1,2,4-triazin-6-one]",–,–,85,100
"CCCCN1N=C(c2cc(Cl)cc(Cl)c2)N(C(=O)OCCl)CC1=O [Compound 15, 1-(n-butyl)-3-(3,5-dichlorophenyl)-4-(chloromethyloxycarbonyl)-4,5-dihydro-1,2,4-triazin-6-one]",–,–,50,75
"CCCCN1N=C(c2cc(Cl)cc(Cl)c2)N(C(=O)OCI)CC1=O [Compound 16, 1-(n-butyl)-3-(3,5-dichlorophenyl)-4-(iodomethyloxycarbonyl)-4,5-dihydro-1,2,4-triazin-6-one]",–,–,75,90
"CCCCN1N=C(c2ccc(Cl)c(Cl)c2)NCC1=S [Compound 17, 1-Butyl-3-(3,4-dichlorophenyl)-4,5-dihydro-1,2,4-triazin-6-thione]",–,–,80,99
"COC1NC(c2cc(Cl)cc(Cl)c2)=NN(CC(F)(F)F)C1=O (stereo not shown) [Compound 18, 1-(2,2,2-Trifluoroethyl)-3-(3,5-dichlorophenyl)-5-methoxy-4,5-dihydro-1,2,4-triazin-6-one]",–,–,75,95
"CC(=O)CC1NC(c2ccc(Cl)cc2)=NN(CC(F)(F)F)C1=O (stereo not shown) [Compound 20, 1-(2,2,2-Trifluorethyl)-3-(4-chlorophenyl)-5-(2-propanone)-4,5-dihydro-1,2,4-triazin-6-one]",75,50,–,–
"O=c1[nH]c(-c2cc(Cl)cc(Cl)c2)nn(CC(F)(F)F)c1=O [Compound 21, 1-(2,2,2-Trifluorethyl)-3-(3,5-dichlorophenyl)-1,2,4-triazin-5,6-dione]",50,0,–,–
"CCCCN1Nc2c3c(Cl)c(Cl)ccc3cn2CC1=O [Compound 23, 9,10-Dichloro-2-butyl-1,2,4-triazino[3,4-a]isoindol-3(4H)-one]",–,–,50,0

SMILES,"Cucumber Powdery Mildew (CPM) protectant fungicide data, percent control (Sphaerotheca fuliginea) [percent control]","Rice Blast (RB) protectant fungicide data, percent control (Pyricularia oryzae) [percent control]",pest or weed control at 300 g/ha (Sphaerotheca fuliginea) [%],pest or weed control at 300 g/ha (Pyricularia oryzae) [%]
"CCCCCN1N=C2C=CC(c3ccc(Cl)cc3)=NN2CC1=O [Compound 24, 2-Pentyl-7-(4-chlorophenyl)-pyridazino[6,1-c][1,2,4]triazin-3(4H)one]",–,–,50,0
"CCCCN1C=C2c3ccccc3OC(=O)N2CC1=O [Compound 25, 3-n-Butyl-3H-9-oxa-3,10a-diaza-phenanthrene-2,10-dione]",–,–,0,75
O=C1CNC(c2ccc(Cl)cc2)=NN1c1ccccc1 [Compound 28],85,85,–,–
O=C1CNC(c2ccc(Cl)cc2)=NN1Cc1ccccc1 [Compound 30],75,85,–,–
CN1N=C(c2ccccc2)NCC1=O [Compound 31],0,50,–,–
O=C1CNC(c2ccccc2)=NN1 [Compound 32],50,75,–,–
COc1ccc(C2=NN(CC(F)(F)F)C(=O)CN2)cc1 [Compound 35],50,50,–,–
CCCCN1N=C(c2ccc(OC)cc2)NCC1=O [Compound 36],50,99,–,–
CCCCN1N=C(c2ccc(OC)cc2)NC(C)C1=O (stereo not shown) [Compound 38],50,0,–,–
COc1ccc(C2=NN(CC(F)(F)F)C(=O)C(OC)N2)cc1 (stereo not shown) [Compound 39],85,99,–,–
CS(=O)(=O)N1CC(=O)N(CC(F)(F)F)N=C1c1ccc(Cl)cc1 [Compound 42],50,99,–,–
O=C1CNC(C2CCCCC2)=NN1CC(F)(F)F [Compound 45],0,75,–,–
COc1cccc(C2=NN(CC(F)(F)F)C(=O)CN2)c1 [Compound 46],0,80,–,–
Cc1c(Cl)cc(C2=NN(CC(F)(F)F)C(=O)CN2)cc1Cl [Compound 47],80,100,–,–
CCCCCN1N=C(c2cc(Cl)c(C)c(Cl)c2)NCC1=O [Compound 49],75,95,–,–
O=C1CNC(c2ccc(C(F)(F)F)cc2)=NN1CC(F)(F)F [Compound 51],0,90,–,–
O=C1C(O)NC(c2ccccn2)=NN1CC(F)(F)F (stereo not shown) [Compound 53],0,75,–,–
